Measured values taken from paper PMC9090415, “Discovery of small molecule inhibitors of Plasmodium falciparum apicoplast DNA polymerase” (Journal of Enzyme Inhibition and Medicinal Chemistry, 2022).

Target: P. falciparum apicoplast DNA polymerase (Pf-apPOL) (Plasmodium falciparum, UniProt Q8ILY1)
Assay: Fluorescence-based high-throughput DNA polymerase assay (molecular beacon), primary screen and dose-response;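 on % inhibition ApPOL 90': test concentration in µM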;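 on % inhibition Apol 40': compound concentration given in µM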;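 on % inhibition apPOL 180': test concentration in µM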
Assay type: biochemical
Conditions: for DNA Pol: 90 min, 10 µM
Method in brief: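 Single-point screening used 10 µM compound with 20 nM polymerase, 20 nM hairpin substrate and 6 µM dNTPs for 90 min at 25 °C. Confirmatory titrations (2.5–80 µM) followed fluorescence at three times, and IC50 was derived from a fit including a cooperativity term n.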

[1] = "DNA Pol" of the 186 hits list (screen value)

Sequence of P. falciparum apicoplast DNA polymerase (Pf-apPOL) (Q8ILY1 entry or part of it): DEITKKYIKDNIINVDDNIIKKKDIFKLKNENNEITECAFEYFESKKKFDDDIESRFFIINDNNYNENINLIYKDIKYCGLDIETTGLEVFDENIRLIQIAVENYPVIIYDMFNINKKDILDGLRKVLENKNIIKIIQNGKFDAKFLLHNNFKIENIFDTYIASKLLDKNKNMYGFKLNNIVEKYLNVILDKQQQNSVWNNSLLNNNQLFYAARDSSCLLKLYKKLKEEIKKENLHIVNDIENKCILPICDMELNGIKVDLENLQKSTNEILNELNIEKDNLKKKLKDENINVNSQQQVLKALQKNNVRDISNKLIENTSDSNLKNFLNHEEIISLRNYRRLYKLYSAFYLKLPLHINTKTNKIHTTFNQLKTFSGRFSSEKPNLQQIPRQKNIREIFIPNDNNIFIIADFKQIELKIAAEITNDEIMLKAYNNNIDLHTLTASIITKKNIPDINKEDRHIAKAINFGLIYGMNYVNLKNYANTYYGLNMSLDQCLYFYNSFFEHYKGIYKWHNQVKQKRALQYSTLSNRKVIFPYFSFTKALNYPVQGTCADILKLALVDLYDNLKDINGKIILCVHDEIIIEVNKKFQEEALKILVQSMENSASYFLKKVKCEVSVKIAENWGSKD

SMILES: Cc1ccc(C)n1-c1ccc(C(=O)NNC(=O)c2ccc3nccnc3c2)cc1 [Molecule 53, O=C(c1ccc(cc1)n1c(C)ccc1C)NNC(=O)c1ccc2c(c1)nccn2]
- DNA Pol [1]: 84
- % inhibition Apo pol 10' (DRC-1, concentration 2.5): 0.1394%
- % inhibition Apo pol 10' (DRC-1, concentration 5): 8.124%
- % inhibition Apo pol 10' (DRC-1, concentration 10): 19.7971%
- % inhibition Apo pol 10' (DRC-1, concentration 20): 46.3145%
- % inhibition Apo pol 10' (DRC-1, concentration 40): 80.1476%
- % inhibition Apo pol 10' (DRC-1, concentration 80): 83.7947%
- % inhibition Apol 90' (DRC-1, concentration 2.5): -3.841%
- % inhibition Apol 90' (DRC-1, concentration 5): -1.933%
- % inhibition Apol 90' (DRC-1, concentration 10): 7.019%
- % inhibition Apol 90' (DRC-1, concentration 20): 31.5983%
- % inhibition Apol 90' (DRC-1, concentration 40): 69.8424%
- % inhibition Apol 90' (DRC-1, concentration 80): 79.5478%
- % inhibition apPOL 180' (DRC-1, concentration 2.5): -5.424%
- % inhibition apPOL 180' (DRC-1, concentration 5): -7.03%
- % inhibition apPOL 180' (DRC-1, concentration 10): 0.2997%
- % inhibition apPOL 180' (DRC-1, concentration 20): 17.1559%
- % inhibition apPOL 180' (DRC-1, concentration 40): 57.2023%
- % inhibition apPOL 180' (DRC-1, concentration 80): 72.0846%
- % inhibition Apo pol 5' (DRC-2, concentration 2.5): 0%
- % inhibition Apo pol 5' (DRC-2, concentration 5): 1.67%
- % inhibition Apo pol 5' (DRC-2, concentration 10): 25%
- % inhibition Apo pol 5' (DRC-2, concentration 20): 46%
- % inhibition Apo pol 5' (DRC-2, concentration 40): 55%
- % inhibition Apo pol 5' (DRC-2, concentration 80): 57%
- % inhibition Apol 40' (DRC-2, concentration 2.5): 3.18%
- % inhibition Apol 40' (DRC-2, concentration 5): 2%
- % inhibition Apol 40' (DRC-2, concentration 10): 23%
- % inhibition Apol 40' (DRC-2, concentration 20): 50%
- % inhibition Apol 40' (DRC-2, concentration 40): 64%
- % inhibition Apol 40' (DRC-2, concentration 80): 72%
- % inhibition ApPOL 90' (DRC-2, concentration 2.5): 0.241%
- % inhibition ApPOL 90' (DRC-2, concentration 5): 1.15%
- % inhibition ApPOL 90' (DRC-2, concentration 10): 18%
- % inhibition ApPOL 90' (DRC-2, concentration 20): 47%
- % inhibition ApPOL 90' (DRC-2, concentration 40): 64%
- % inhibition ApPOL 90' (DRC-2, concentration 80): 74%
- % inhibition apPOL 180' (DRC-2, concentration 2.5): -1.53%
- % inhibition apPOL 180' (DRC-2, concentration 5): -2.77%
- % inhibition apPOL 180' (DRC-2, concentration 10): 10%
- % inhibition apPOL 180' (DRC-2, concentration 20): 37%
- % inhibition apPOL 180' (DRC-2, concentration 40): 56%
- % inhibition apPOL 180' (DRC-2, concentration 80): 73%
- DNA Pol (primary screen value, DNA Pol): 84

SMILES: CC1(C)CC(=O)C2=C(C1)OC1=C(C(=O)CC(C)(C)C1)C2c1ccc(O)cc1 [KU0194226]
- DNA Pol [1]: 31
- % inhibition Apo pol 10' (DRC-1, concentration 2.5): 1.4755%
- % inhibition Apo pol 10' (DRC-1, concentration 5): 6.619%
- % inhibition Apo pol 10' (DRC-1, concentration 10): 20.9207%
- % inhibition Apo pol 10' (DRC-1, concentration 20): 40.5777%
- % inhibition Apo pol 10' (DRC-1, concentration 40): 75.7382%
- % inhibition Apo pol 10' (DRC-1, concentration 80): 84.2344%
- % inhibition Apol 90' (DRC-1, concentration 2.5): 3.436%
- % inhibition Apol 90' (DRC-1, concentration 5): 6.7212%
- % inhibition Apol 90' (DRC-1, concentration 10): 20.1854%
- % inhibition Apol 90' (DRC-1, concentration 20): 38.6225%
- % inhibition Apol 90' (DRC-1, concentration 40): 72.348%
- % inhibition Apol 90' (DRC-1, concentration 80): 80.6214%
- % inhibition apPOL 180' (DRC-1, concentration 2.5): 2.939%
- % inhibition apPOL 180' (DRC-1, concentration 5): 5.25%
- % inhibition apPOL 180' (DRC-1, concentration 10): 19.133%
- % inhibition apPOL 180' (DRC-1, concentration 20): 35.7891%
- % inhibition apPOL 180' (DRC-1, concentration 40): 67.9328%
- % inhibition apPOL 180' (DRC-1, concentration 80): 76.0012%
- % inhibition Apo pol 5' (DRC-2, concentration 2.5): 2.55%
- % inhibition Apo pol 5' (DRC-2, concentration 5): 2.7%
- % inhibition Apo pol 5' (DRC-2, concentration 10): 17%
- % inhibition Apo pol 5' (DRC-2, concentration 20): 21%
- % inhibition Apo pol 5' (DRC-2, concentration 40): 37%
- % inhibition Apo pol 5' (DRC-2, concentration 80): 35%
- % inhibition Apol 40' (DRC-2, concentration 2.5): 5.61%
- % inhibition Apol 40' (DRC-2, concentration 5): -0.353%
- % inhibition Apol 40' (DRC-2, concentration 10): 23%
- % inhibition Apol 40' (DRC-2, concentration 20): 31%
- % inhibition Apol 40' (DRC-2, concentration 40): 52%
- % inhibition Apol 40' (DRC-2, concentration 80): 59%
- % inhibition ApPOL 90' (DRC-2, concentration 2.5): 6%
- % inhibition ApPOL 90' (DRC-2, concentration 5): -4.67%
- % inhibition ApPOL 90' (DRC-2, concentration 10): 27%
- % inhibition ApPOL 90' (DRC-2, concentration 20): 34%
- % inhibition ApPOL 90' (DRC-2, concentration 40): 57%
- % inhibition ApPOL 90' (DRC-2, concentration 80): 65%
- % inhibition apPOL 180' (DRC-2, concentration 2.5): 5.45%
- % inhibition apPOL 180' (DRC-2, concentration 5): -63%
- % inhibition apPOL 180' (DRC-2, concentration 10): 27%
- % inhibition apPOL 180' (DRC-2, concentration 20): 36%
- % inhibition apPOL 180' (DRC-2, concentration 40): 61%
- % inhibition apPOL 180' (DRC-2, concentration 80): 70%
- DNA Pol (primary screen value, DNA Pol): 31

SMILES: CCCCC(=O)N1CCc2c(nc3cc(-c4ccccc4Cl)[nH]n3c2=O)C1 [Molecule 37, CCCCC(=O)N1CCc2c(C1)nc1n(c2=O)[nH]c(c1)c1ccccc1Cl]
- DNA Pol [1]: 43
- % inhibition Apo pol 10' (DRC-1, concentration 2.5): 9.306%
- % inhibition Apo pol 10' (DRC-1, concentration 5): 24.2361%
- % inhibition Apo pol 10' (DRC-1, concentration 10): 50.6318%
- % inhibition Apo pol 10' (DRC-1, concentration 20): 65.8539%
- % inhibition Apo pol 10' (DRC-1, concentration 40): 79.9976%
- % inhibition Apo pol 10' (DRC-1, concentration 80): 82.2007%
- % inhibition Apol 90' (DRC-1, concentration 2.5): 2.3506%
- % inhibition Apol 90' (DRC-1, concentration 5): 13.0098%
- % inhibition Apol 90' (DRC-1, concentration 10): 36.7881%
- % inhibition Apol 90' (DRC-1, concentration 20): 53.1884%
- % inhibition Apol 90' (DRC-1, concentration 40): 71.0429%
- % inhibition Apol 90' (DRC-1, concentration 80): 81.0911%
- % inhibition apPOL 180' (DRC-1, concentration 2.5): -3.183%
- % inhibition apPOL 180' (DRC-1, concentration 5): 4.447%
- % inhibition apPOL 180' (DRC-1, concentration 10): 22.1273%
- % inhibition apPOL 180' (DRC-1, concentration 20): 36.1098%
- % inhibition apPOL 180' (DRC-1, concentration 40): 57.5163%
- % inhibition apPOL 180' (DRC-1, concentration 80): 72.7607%
- % inhibition Apo pol 5' (DRC-2, concentration 2.5): 11%
- % inhibition Apo pol 5' (DRC-2, concentration 5): 13%
- % inhibition Apo pol 5' (DRC-2, concentration 10): 29%
- % inhibition Apo pol 5' (DRC-2, concentration 20): 33%
- % inhibition Apo pol 5' (DRC-2, concentration 40): 46%
- % inhibition Apo pol 5' (DRC-2, concentration 80): 35%
- % inhibition Apol 40' (DRC-2, concentration 2.5): 13%
- % inhibition Apol 40' (DRC-2, concentration 5): 15%
- % inhibition Apol 40' (DRC-2, concentration 10): 33%
- % inhibition Apol 40' (DRC-2, concentration 20): 38%
- % inhibition Apol 40' (DRC-2, concentration 40): 62%
- % inhibition Apol 40' (DRC-2, concentration 80): 62%
- % inhibition ApPOL 90' (DRC-2, concentration 2.5): 12%
- % inhibition ApPOL 90' (DRC-2, concentration 5): 13%
- % inhibition ApPOL 90' (DRC-2, concentration 10): 30%
- % inhibition ApPOL 90' (DRC-2, concentration 20): 35%
- % inhibition ApPOL 90' (DRC-2, concentration 40): 63%
- % inhibition ApPOL 90' (DRC-2, concentration 80): 68%
- % inhibition apPOL 180' (DRC-2, concentration 2.5): 7%
- % inhibition apPOL 180' (DRC-2, concentration 5): 8.42%
- % inhibition apPOL 180' (DRC-2, concentration 10): 23%
- % inhibition apPOL 180' (DRC-2, concentration 20): 23%
- % inhibition apPOL 180' (DRC-2, concentration 40): 55%
- % inhibition apPOL 180' (DRC-2, concentration 80): 68%
- DNA Pol (primary screen value, DNA Pol): 43
